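Cells were grown in 96-well plates and exposed to each compound for 48 hours at five concentrations; endpoints were interpolated linearly between bracketing concentrations, or set to the highest concentration if not reached. GI50 marks 50% less growth.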 Active and inactive are the calls of the source. Cut-off read from the data, not from the text of the source: active = GI50 up to about 1.1 µM and inactive = higher.
Columns and labels:
Assay in all cases: NCI-60 cell line screen, 48 h
SF-268 = tested on: SF-268
786-0 = tested on: 786-0
SNB-19 = tested on: SNB-19
U-251 = tested on: U-251
MCF7 = tested on: MCF7
HOP-62 = tested on: HOP-62
SF-295 = tested on: SF-295
UO-31 = tested on: UO-31
SW-620 = tested on: SW-620
A549 = tested on: A549
TK-10 = tested on: TK-10
SK-MEL-5 = tested on: SK-MEL-5
NCI-H460 = tested on: NCI-H460
COLO 205 = tested on: COLO 205
OVCAR-5 = tested on: OVCAR-5
NCI/ADR-RES = tested on: NCI/ADR-RES
HOP-92 = tested on: HOP-92
KM12 = tested on: KM12
ACHN = tested on: ACHN
MDA-MB-231 = tested on: MDA-MB-231
SK-MEL-28 = tested on: SK-MEL-28
Malme-3M = tested on: Malme-3M
IGROV-1 = tested on: IGROV-1
UACC-62 = tested on: UACC-62
HL-60 = tested on: HL-60
SR = tested on: SR
K562 = tested on: K562
NCI-H522 = tested on: NCI-H522
OVCAR-4 = tested on: OVCAR-4
SK-MEL-2 = tested on: SK-MEL-2
MDA-N = tested on: MDA-N
PC-3 = tested on: PC-3
OVCAR-8 = tested on: OVCAR-8
T47D = tested on: T47D
M14 = tested on: M14
HCT-15 = tested on: HCT-15
CCRF-CEM = tested on: CCRF-CEM
Hs-578T = tested on: Hs-578T
LOX IMVI = tested on: LOX IMVI
RPMI-8226 = tested on: RPMI-8226
NCI-H23 = tested on: NCI-H23
OVCAR-3 = tested on: OVCAR-3
DU-145 = tested on: DU-145
HT-29 = tested on: HT-29
MDA-MB-435 = tested on: MDA-MB-435
BT-549 = tested on: BT-549
SK-OV-3 = tested on: SK-OV-3
HCC 2998 = tested on: HCC 2998
CAKI-1 = tested on: CAKI-1
EKVX = tested on: EKVX
A498 = tested on: A498
MOLT-4 = tested on: MOLT-4
UACC-257 = tested on: UACC-257
SN12C = tested on: SN12C
HCT-116 = tested on: HCT-116
SNB-75 = tested on: SNB-75
NCI-H226 = tested on: NCI-H226

In the case of `Cc1cc(C)nc(NS(=O)(=O)c2ccc(Nc3c4ccccc4nc4c(C(=O)NNCCO)cccc34)cc2)n1`, the GI50 (SF-268) is reported as > 100 µM (inactive), the GI50 (786-0) is reported as > 100 µM (inactive) and the GI50 (SNB-19) is reported as > 100 µM (inactive). The GI50 (U-251) was > 100 µM (inactive), the GI50 (MCF7) was 89.1 µM (inactive) and the GI50 (HOP-62) was > 100 µM (inactive). The GI50 (SF-295) was > 100 µM (inactive), the GI50 (UO-31) was > 100 µM (inactive) and the GI50 (SW-620) was > 100 µM (inactive). For the same compound, the GI50 (A549) was > 100 µM (inactive), the GI50 (TK-10) was > 100 µM (inactive) and the GI50 (SK-MEL-5) was > 100 µM (inactive). The GI50 (NCI-H460) was 15.7 µM (inactive), the GI50 (COLO 205) was > 100 µM (inactive) and the GI50 (OVCAR-5) was > 100 µM (inactive). For the same compound, the GI50 (NCI/ADR-RES) was > 100 µM (inactive), the GI50 (HOP-92) was > 100 µM (inactive) and the GI50 (KM12) was > 100 µM (inactive). The GI50 (ACHN) was > 100 µM (inactive), the GI50 (MDA-MB-231) was > 100 µM (inactive) and the GI50 (SK-MEL-28) was > 100 µM (inactive). The GI50 (Malme-3M) was > 100 µM (inactive), the GI50 (IGROV-1) was > 100 µM (inactive) and the GI50 (UACC-62) was 13.7 µM (inactive). For the same compound, the GI50 (HL-60) was 42 µM (inactive), the GI50 (SR) was 25.4 µM (inactive) and the GI50 (K562) was 31 µM (inactive). For the same compound, the GI50 (NCI-H522) was 39.5 µM (inactive), the GI50 (OVCAR-4) was > 100 µM (inactive) and the GI50 (SK-MEL-2) was 58.6 µM (inactive). The GI50 (MDA-N) was > 100 µM (inactive), the GI50 (PC-3) was > 100 µM (inactive) and the GI50 (OVCAR-8) was > 100 µM (inactive). The GI50 (T47D) was 5.06 µM (inactive), the GI50 (M14) was > 100 µM (inactive) and the GI50 (HCT-15) was greater than 100 µM. The GI50 (CCRF-CEM) was 21 µM (inactive), the GI50 (Hs-578T) was > 100 µM (inactive) and the GI50 (LOX IMVI) was 34.6 µM (inactive). For the same compound, the GI50 (RPMI-8226) was 15.7 µM (inactive), the GI50 (NCI-H23) was > 100 µM (inactive) and the GI50 (OVCAR-3) was 86.9 µM (inactive). The GI50 (DU-145) was > 100 µM (inactive), the GI50 (HT-29) was > 100 µM (inactive) and the GI50 (MDA-MB-435) was 79.3 µM (inactive). The GI50 (BT-549) was > 100 µM (inactive), the GI50 (SK-OV-3) was > 100 µM (inactive) and the GI50 (HCC 2998) was > 100 µM (inactive). The GI50 (CAKI-1) was > 100 µM (inactive), the GI50 (EKVX) was > 100 µM (inactive) and the GI50 (A498) was > 100 µM (inactive). The GI50 (MOLT-4) was 30.9 µM (inactive), the GI50 (UACC-257) was > 100 µM (inactive) and the GI50 (SN12C) was > 100 µM (inactive).
`COc1ccc(N2C(=O)C3c4[nH]c5ccc(C)cc5c4C4CCC(C(C)C)CC4C3C2=O)cc1` (centres undefined) was tested, and the GI50 (SF-268) was 75.5 µM (inactive), the GI50 (786-0) was > 100 µM (inactive) and the GI50 (SNB-19) was > 100 µM (inactive). The GI50 (U-251) was 47.6 µM (inactive), the GI50 (MCF7) was > 100 µM (inactive) and the GI50 (HOP-62) was 45.4 µM (inactive). The GI50 (SF-295) was > 100 µM (inactive), the GI50 (UO-31) was > 100 µM (inactive) and the GI50 (SW-620) was > 100 µM (inactive). For the same compound, the GI50 (A549) was > 100 µM (inactive), the GI50 (TK-10) was > 100 µM (inactive) and the GI50 (HCT-116) was > 100 µM (inactive). The GI50 (SK-MEL-5) was > 100 µM (inactive), the GI50 (NCI-H460) was > 100 µM (inactive) and the GI50 (COLO 205) was > 100 µM (inactive). The GI50 (OVCAR-5) was > 100 µM (inactive), the GI50 (NCI/ADR-RES) was > 100 µM (inactive) and the GI50 (HOP-92) was > 100 µM (inactive). For the same compound, the GI50 (KM12) was > 100 µM (inactive), the GI50 (ACHN) was > 100 µM (inactive) and the GI50 (MDA-MB-231) was > 100 µM (inactive). The GI50 (SK-MEL-28) was > 100 µM (inactive), the GI50 (IGROV-1) was > 100 µM (inactive) and the GI50 (UACC-62) was > 100 µM (inactive). The GI50 (SR) was > 100 µM (inactive), the GI50 (K562) was > 100 µM (inactive) and the GI50 (NCI-H522) was > 100 µM (inactive). The GI50 (OVCAR-4) was > 100 µM (inactive), the GI50 (SK-MEL-2) was > 100 µM (inactive) and the GI50 (MDA-N) was > 100 µM (inactive). The GI50 (PC-3) was > 100 µM (inactive), the GI50 (SNB-75) was 27.7 µM (inactive) and the GI50 (OVCAR-8) was > 100 µM (inactive). The GI50 (T47D) was > 100 µM (inactive), the GI50 (M14) was > 100 µM (inactive) and the GI50 (HCT-15) was greater than 100 µM. For the same compound, the GI50 (CCRF-CEM) was 0.995 µM (active), the GI50 (Hs-578T) was 57.8 µM (inactive) and the GI50 (NCI-H226) was > 100 µM (inactive). For the same compound, the GI50 (LOX IMVI) was > 100 µM (inactive), the GI50 (RPMI-8226) was > 100 µM (inactive) and the GI50 (NCI-H23) was > 100 µM (inactive). For the same compound, the GI50 (OVCAR-3) was > 100 µM (inactive), the GI50 (DU-145) was > 100 µM (inactive) and the GI50 (HT-29) was > 100 µM (inactive). For the same compound, the GI50 (MDA-MB-435) was > 100 µM (inactive), the GI50 (BT-549) was > 100 µM (inactive) and the GI50 (SK-OV-3) was > 100 µM (inactive). For the same compound, the GI50 (HCC 2998) was > 100 µM (inactive), the GI50 (CAKI-1) was > 100 µM (inactive) and the GI50 (EKVX) was > 100 µM (inactive). For the same compound, the GI50 (A498) was > 100 µM (inactive), the GI50 (MOLT-4) was > 100 µM (inactive) and the GI50 (UACC-257) was > 100 µM (inactive). For the same compound, the GI50 (SN12C) was > 100 µM (inactive).

From ChEMBL document CHEMBL1201862, “PubChem BioAssay data set” (2004)
